The subject of one series is HeLa cells. The series can be described thus: Live cell-activated caspase 3/7 assay. The class given is cell-based, human. The note with it: within 24 h of treatment. On the procedure: HeLa cells (6,000/well) were seeded in 96-well μCLEAR plates (Greiner) in 100 μL DMEM plus serum, and incubated for 16 h at 37°C and 5% CO2. […] After 24 h 2 μM CellEvent Caspase-3/7 Green Reagent (Life Technologies), and NucBlue Live ReadyProbes Reagent (Hoechst 33342; Life Technologies) were added. Cells were imaged after 60 min on a CV7000 spinning disk confocal system (Yokogawa Electric Corporation) with a 20 × 0.75 NA U-PlanApo objective and 2560 × 2160 sCMOS camera with 2 × 2 binning. The imaging chamber was maintained at 37°C and 5% CO2. Six to eight fields/well were imaged, with duplicate wells for each condition. 3 μm × 2 μm z-sections in the blue (40% power, 300 ms, 35% gain) and green (40% power, 300 ms, 35% gain) channels were captured in each field. The apoptotic fraction was calculated by dividing the number of cells fluorescing at 530 nm (corresponding to the cleaved caspase reporter reagent) by the number of nuclei (Hoechst staining). Image analysis was done using the CV7000 image analysis software (Yokogawa Electric Corporation).

In another series the target is T1, Aurora B/INCENP^783–918 (Homo sapiens, UniProt Q96GD4).
T1 construct: purchased SignalChem
Description: Aurora B/INCENP^783–918 kinase assay (ADP-Glo). The class given is biochemical. For orientation: ADP-Glo first removes unused ATP, then detects ADP through luciferase.

The subject of the next series is Aurora A. The note with it: ref 59; read-out: Aurora A IC50 (Published); cited from earlier work.
In another series the test system is Aurora B. The following applies: ref 59; read-out: Aurora B IC50 (Published); cited from earlier work.
Series [1] has as its system HeLa, RPE1, and U2OS cells. Description: Cellular proliferation analysis (ATPLite, 24 h).
Series [2] deals with pLATS2(Ser 83) in HeLa cells. The series can be described thus: Substrate phosphorylation immunofluorescence assay, pLATS2(Ser 83), HeLa. The class given is cell-based, human. The following applies: Homo sapiens, HeLa, 8 h, read-out: pLATS2 (Ser83) IC50, HeLa; 8 h inhibitor treatment. The procedure: We employed the protocol described in Figure 3D to analyze substrate phosphorylation in HeLa cells following treatment with all 10 inhibitors in dose–response. Asynchronous cells were incubated with vehicle (DMSO) or different inhibitor doses for 8 h and then fixed and labeled with a mixture of three antibodies directed against pLATS2(Ser 83), pH3(Ser 28), and MPM2 [which detects mitotic phosphoepitopes; ([86])]. While both the anti-pLATS2(Ser 83) and MPM2 antibodies are mouse monoclonals, they are of different IgG subclasses [IgG2b for anti-pLATS2(Ser 83) and IgG1 for MPM2], and can thus be detected with subclass-specific secondary antibodies (Table S3 in Supplementary Material).
In control mitotic cells, pLATS2(Ser 83) is concentrated in foci around the spindle poles (Figure 3E; top row – green arrow) and pH3(Ser 28) is on the mitotic chromatin (Figure 3E; top row – red arrow). Selective kinase inhibition should result in loss of one signal but not the other, as illustrated by the example images for specific conditions in Figure 3E (middle and bottom rows). Cells were imaged in 4 channels to visualize pLATS2(Ser 83), pH3(Ser 28), MPM2, and DNA (labeled with Hoechst) and mitotic cells were segmented based on their bright MPM2 labeling (Figure 3E). Intensity and area thresholds were set to select the pLATS2(Ser 83) foci and the pH3(Ser 28)-labeled chromatin in their respective channels in DMSO-treated control cells and the same thresholds were applied for inhibitor-treated cells. The mean fluorescence intensity per pixel was measured to assess the activities of the kinases targeting these two substrate phosphorylation sites.
Twelve thousand HeLa cells, 10,000 U2OS cells, or 8,000 RPE1 cells were seeded into 96-well glass-bottom Sensoplates (Greiner) 16 h before inhibitor addition. Prior to seeding, the glass-bottom plates were coated with poly-L-lysine (Sigma). […] After 8 h cells were fixed with 4% PFA for 20 min at room temperature. The fixed cells were washed with PBS. For immunostaining, cells were permeabilized and blocked with PBS containing 10% normal donkey serum (Jackson ImmunoResearch) and 0.1% Triton-X100 for 1 h at room temperature. Primary antibodies against phospho-LATS2 (Ser 83), phospho-histone H3(Ser 28), and anti-phospho-MPM2 (see Table S3 in Supplementary Material) were incubated for 1 h at room temperature. […] Cells were then washed twice with PBS containing 0.1% Triton-X100. Image acquisition in four channels was performed using a CV7000 spinning disk confocal system (Yokogawa Electric Corporation) with a 40 × 0.95 NA U-PlanApo objective and 2560 × 2160 pixel sCMOS camera. […] Fifty fields per well were imaged with quadruplicate wells for each condition. Image analysis was done using the CV7000 image analysis software (Yokogawa Electric Corporation). Between 100 and 1,000 mitotic cells per condition were segmented applying object identification parameters to select for bright MPM2 labeling. Using a nuclear identifier protocol, minimum intensity thresholds were set for pLATS2(Ser 83) and the pH3(Ser 28) signals, and the resulting identified objects were eroded, dilated, and filtered for size by user-defined thresholds. For only the MPM2-positive mitotic cells, the mean fluorescence intensity of the identified pLATS2(Ser 83) and pH3(Ser 28) objects was measured, and the average intensity per cell per well was calculated. The same thresholds were applied for all of the inhibitor-treated samples, which were processed, imaged, and analyzed in parallel with control DMSO-treated cells. Data were fit using a four-parameter, variable slope fit in Prism (GraphPad). Primary and secondary antibody dilutions can be found in Table S3 in Supplementary Material.

The target in series [3] is T2, full-length human Aurora A (Homo sapiens, UniProt O14965).
T2 sequence (O14965 1-403): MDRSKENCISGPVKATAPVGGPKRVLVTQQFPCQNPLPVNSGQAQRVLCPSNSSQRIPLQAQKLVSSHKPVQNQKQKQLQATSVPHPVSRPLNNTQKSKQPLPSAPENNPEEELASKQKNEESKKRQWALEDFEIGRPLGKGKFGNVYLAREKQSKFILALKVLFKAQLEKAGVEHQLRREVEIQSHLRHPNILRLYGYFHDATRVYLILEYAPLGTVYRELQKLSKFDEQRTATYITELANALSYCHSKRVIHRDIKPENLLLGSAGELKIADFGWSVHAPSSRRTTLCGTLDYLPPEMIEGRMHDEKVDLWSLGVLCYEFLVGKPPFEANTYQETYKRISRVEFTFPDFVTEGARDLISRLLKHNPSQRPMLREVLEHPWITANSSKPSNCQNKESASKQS
The series can be described thus: Aurora A kinase assay (ADP-Glo, Kemptide substrate).

A further series deals with T3, Aurora A/TPX2^1–43 (Homo sapiens, UniProt O14965).
T3 sequence (O14965 1-403): T2 sequence (O14965 1-403)
T3 sequence (Q9ULW0 1-43 partner limits assumed): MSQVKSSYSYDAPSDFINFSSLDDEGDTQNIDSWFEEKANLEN
Description: Aurora A/TPX2^1–43 kinase assay (ADP-Glo).

The subject of series [4] is pH3(Ser 28) in HeLa cells. Description: Substrate phosphorylation immunofluorescence assay, pH3(Ser 28), HeLa. The class given is cell-based, human. The note with it: 8 h inhibitor treatment.
Description: After 8 h cells were fixed with 4% PFA for 20 min at room temperature. The fixed cells were washed with PBS. For immunostaining, cells were permeabilized and blocked with PBS containing 10% normal donkey serum (Jackson ImmunoResearch) and 0.1% Triton-X100 for 1 h at room temperature. Primary antibodies against phospho-LATS2 (Ser 83), phospho-histone H3(Ser 28), and anti-phospho-MPM2 (see Table S3 in Supplementary Material) were incubated for 1 h at room temperature. […] Cells were then washed twice with PBS containing 0.1% Triton-X100. […] Fifty fields per well were imaged with quadruplicate wells for each condition. Image analysis was done using the CV7000 image analysis software (Yokogawa Electric Corporation). Between 100 and 1,000 mitotic cells per condition were segmented applying object identification parameters to select for bright MPM2 labeling. Using a nuclear identifier protocol, minimum intensity thresholds were set for pLATS2(Ser 83) and the pH3(Ser 28) signals, and the resulting identified objects were eroded, dilated, and filtered for size by user-defined thresholds. […] The same thresholds were applied for all of the inhibitor-treated samples, which were processed, imaged, and analyzed in parallel with control DMSO-treated cells. Data were fit using a four-parameter, variable slope fit in Prism (GraphPad).
Where [5] appears, read: fold difference in potency calculated by dividing Ki values.

T1 sequence (Q96GD4 whole entry): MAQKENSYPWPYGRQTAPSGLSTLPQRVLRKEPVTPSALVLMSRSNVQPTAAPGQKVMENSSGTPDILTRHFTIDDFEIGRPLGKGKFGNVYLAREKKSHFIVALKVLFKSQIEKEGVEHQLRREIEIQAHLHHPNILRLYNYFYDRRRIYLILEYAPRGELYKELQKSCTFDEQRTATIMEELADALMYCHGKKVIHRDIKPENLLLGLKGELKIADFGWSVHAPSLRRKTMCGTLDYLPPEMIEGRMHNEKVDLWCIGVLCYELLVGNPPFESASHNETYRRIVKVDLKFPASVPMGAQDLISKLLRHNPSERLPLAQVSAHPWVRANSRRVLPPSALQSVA
T1 sequence (Q9NQS7 783-918 partner limits assumed): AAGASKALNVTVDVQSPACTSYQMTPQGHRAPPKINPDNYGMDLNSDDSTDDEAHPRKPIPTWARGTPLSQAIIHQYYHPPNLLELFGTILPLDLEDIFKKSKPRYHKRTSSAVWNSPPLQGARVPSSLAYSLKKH

With `CCN1CCN(C(=O)Cc2ccc(Nc3ncc(F)c(Nc4ccc(C(=O)Nc5ccccc5Cl)cc4)n3)cc2)CC1` [Genentech Aurora Inhibitor 1], the Apoptosis result in the series on HeLa cells is “apoptotic cell death”. Also, the Ki (commonly the dissociation constant of the complex between target and ligand, obtained from inhibition or displacement) was 156 ± 33.7 nM on Aurora B/INCENP^783–918; 0.57 ± 0.06 nM in series [3] (Aurora A Ki Mean ± SD, [ATP] = Km(ATP) (35 μM), Ki calculated from IC50 with tight-binding equation); 0.24 ± 0.02 nM at Aurora A/TPX2^1–43. In addition, the results for the IC50 (in the series on Aurora A; in the series on Aurora B; in series [2]) were 3.4 nM, 3400 nM and 490 nM, respectively. Also, the “Toxicity / cytotoxicity (cellular proliferation)” value in series [1] (HeLa, RPE1, U2OS, 24 h (Figure 4D, Figure S2B)) was “cytotoxic”. In [1] (HeLa, within 24 h of treatment), the Effect on proliferation result was “significantly reduced proliferation”. Also, the “Toxicity (reduced proliferation)” value in series [1] (U2OS and RPE1 cells, 24 h) was “toxicity”. Also, the “Selectivity ratio Aur A versus Aur A-TPX2^1–43” value in series [3] (setting [5]) is 0.4 fold. The “Selectivity ratio Aur A versus Aur B-INCENP^783–918” value in series [3] (setting [5]) was 274 fold. Further, the “Increase of affinity for Aurora A by TPX2^1–43” value on Aurora A/TPX2^1–43 (Aurora A Ki versus Aurora A/TPX2^1–43 Ki) is 2.5 fold. In addition, on Aurora A/TPX2^1–43 (setting [5]), the “Selectivity ratio Aur A-TPX2^1–43 versus Aur B-INCENP^783–918” value is on record as 654 fold. In addition, the figures for the “pHistone H3 (Ser28) IC50” value in series [4] and in [4] (listed as Genentech Aurora Inh 1) were “NE@9 μM” and “NE (9 μM)”, respectively.

The values above are taken from article PMC4685510, “A Cell Biologist’s Field Guide to Aurora Kinase Inhibitors” (Frontiers in Oncology, 2015).
